{"source": "paper PMC8480901", "about": "(PLoS ONE, 2021)", "test_system": "TNF-α, IL-6, IL-1β, GM-CSF, CXCL-1, CXCL-2, CCL-2 and MMP-9 in lung tissue", "assay": "LPS-induced cytokines, chemokines and MMP-9 in mouse lung homogenates (Luminex, ELISA)", "conditions": "lung homogenate, LPS; for IL-1β Mean / IL-6 Mean / MMP9, Mean / TNFα Mean / CCL2 Mean / CXCL1, Mean / CXCL2, Mean / GM-CSF Mean: mean of 8; for CCL2 / CXCL1 / CXCL2 / GM-CSF / IL-1β / IL-6 / MMP9 / TNFα: individual animal, listed as Lef", "note": "Where “and” joins values, the source holds several entries; their conditions need not be identical. Identical values can stand only once.", "description": "To induce pulmonary neutrophilia, mice in the control group received intranasal (IN) 50 μL saline, and all other animals received 5 μg LPS/50 μL saline IN per mouse.\nAfter bronchoalveolar lavage, lungs were removed, weighed, snap frozen, and stored at −80°C until analysis. To homogenize the tissue, the frozen lungs were thawed and placed in Precellys CK28 Hard Tissue tubes (BERTIN Instruments, Montigny-le-Bretonneux, France) in 1 mL PBS (Gibco, Life Technologies, Paisley, UK) supplemented with protease inhibitors (Halt™ Protease Inhibitor Cocktail [100×]; Thermo Fisher Scientific, Rockford, IL, USA). A Precellys homogenizer (BERTIN Instruments) was used, shaking at 6800 rpm for three 30-second pulses separated by 15-second pauses. After homogenization, samples were centrifuged at 18,000×g for 10 minutes at 4°C, and the supernatants were collected for analysis.\nConcentrations of tumor necrosis factor (TNF)-α, IL-6, granulocyte-macrophage colony-stimulating factor (GM-CSF), chemokine (C-X-C motif) ligand (CXCL)-1, CXCL-2, and chemokine (C-C motif) ligand (CCL)-2 in mouse lung homogenates were analyzed with the Mouse Premixed Multi-Analyte Kit (R&D Systems, Minneapolis, MN, USA) per the manufacturer’s protocol and using a Luminex 200 System (Luminex Corporation, Austin, TX, USA). Cytokine and chemokine concentrations were determined from blank-corrected median fluorescence intensity of each sample via xPONENT® software (Luminex Corporation), interpolating from standard curves generated with a 5-parameter logistic curve-fit.\nMouse Total MMP (matrix metalloprotease)-9 and IL-1β/IL-1F2 DuoSet ELISA (enzyme-linked immunosorbent assay) kits (R&D Systems) were used to measure concentrations of MMP-9 and IL-1β, respectively, in lung homogenates per the manufacturer’s protocols. Absorbance at 450 nm was measured using the SpectraMax i3 (Molecular Devices, San Jose, CA, USA). Concentrations of MMP-9 and IL-1β in samples were determined by interpolation from standard curves.\nDifferences between treated versus vehicle groups were determined using the Mann-Whitney test and were considered statistically significant when P<0.05. Outliers in the analysis of cytokine and chemokine concentrations were identified using the Grubbs test. No criteria were set for inclusion/exclusion of animals during the experiment or data points during the analysis."}
{"smiles": "C=C[C@]1(C)C[C@@H](OC(=O)CS[C@@H]2CC[C@@H](N)C[C@H]2O)[C@]2(C)[C@H](C)CC[C@]3(CCC(=O)[C@H]32)[C@@H](C)[C@@H]1O", "note": "[Lefamulin]", "values": [{"measurement": "IL-1β Mean", "setting": "10 mg/kg", "result": 12997, "unit": "pg/mL"}, {"measurement": "IL-6 Mean", "setting": "10 mg/kg", "result": 175, "unit": "pg/mL"}, {"measurement": "MMP9, Mean", "setting": "10 mg/kg", "result": 2244, "unit": "pg/mL"}, {"measurement": "TNFα Mean", "setting": "10 mg/kg", "result": 220, "unit": "pg/mL"}, {"measurement": "CCL2 % reduction", "setting": "30 mg/kg", "result": 105, "unit": "%"}, {"measurement": "CXCL1 % reduction", "setting": "30 mg/kg", "result": 52, "unit": "%"}, {"measurement": "CXCL2 % reduction", "setting": "30 mg/kg", "result": 61, "unit": "%"}, {"measurement": "GM-CSF % reduction", "setting": "30 mg/kg", "result": 95, "unit": "%"}, {"measurement": "IL-1β % reduction", "setting": "30 mg/kg", "result": 8, "unit": "%"}, {"measurement": "IL-6 % reduction", "setting": "30 mg/kg", "result": 120, "unit": "%"}, {"measurement": "MMP9 % reduction", "setting": "30 mg/kg", "result": 26, "unit": "%"}, {"measurement": "TNFα % reduction", "setting": "30 mg/kg", "result": 77, "unit": "%"}, {"measurement": "CCL2", "setting": "30 mg/kg", "result": "664.18 pg/mL and 229.87 pg/mL and 256.42 pg/mL and 281.81 pg/mL and 306.24 pg/mL and 172.04 pg/mL"}, {"measurement": "CXCL1", "setting": "30 mg/kg", "result": "9099.72 pg/mL and 7572.60 pg/mL and 6087.32 pg/mL and 5765.52 pg/mL and 5509.25 pg/mL and 4685.62 pg/mL and 6328.54 pg/mL and 4359.63 pg/mL"}, {"measurement": "CXCL2", "setting": "30 mg/kg", "result": "7789.00 pg/mL and 4810.48 pg/mL and 4106.80 pg/mL and 4675.09 pg/mL and 4634.09 pg/mL and 3899.14 pg/mL and 3943.89 pg/mL and 3825.96 pg/mL"}, {"measurement": "GM-CSF", "setting": "30 mg/kg", "result": "46.10 pg/mL and 24.75 pg/mL and 27.29 pg/mL and 23.05 pg/mL and 21.37 pg/mL and 16.32 pg/mL and 9.66 pg/mL"}, {"measurement": "IL-1β", "setting": "30 mg/kg", "result": "12246 pg/mL and 8161 pg/mL and 9564 pg/mL and 10656 pg/mL and 10104 pg/mL and 9202 pg/mL and 9081 pg/mL and 11831 pg/mL"}, {"measurement": "IL-6", "setting": "30 mg/kg", "result": "118.12 pg/mL and 87.03 pg/mL and 60.54 pg/mL and 67.15 pg/mL and 58.34 pg/mL and 45.17 pg/mL and 29.90 pg/mL and 48.46 pg/mL"}, {"measurement": "MMP9", "setting": "30 mg/kg", "result": "2129 pg/mL and 1886 pg/mL and 1848 pg/mL and 1924 pg/mL and 1726 pg/mL and 1867 pg/mL and 2081 pg/mL and 2097 pg/mL"}, {"measurement": "TNFα", "setting": "30 mg/kg", "result": "186.35 pg/mL and 395.67 pg/mL and 202.12 pg/mL and 215.17 pg/mL and 246.13 pg/mL and 275.41 pg/mL and 284.25 pg/mL and 181.07 pg/mL"}, {"measurement": "CCL2 Mean", "setting": "30 mg/kg", "result": 296, "unit": "pg/mL"}, {"measurement": "CXCL1, Mean", "setting": "30 mg/kg", "result": 6176, "unit": "pg/mL"}, {"measurement": "CXCL2, Mean", "setting": "30 mg/kg", "result": 4711, "unit": "pg/mL"}, {"measurement": "GM-CSF Mean", "setting": "30 mg/kg", "result": 23, "unit": "pg/mL"}, {"measurement": "IL-1β Mean", "setting": "30 mg/kg", "result": 10106, "unit": "pg/mL"}, {"measurement": "IL-6 Mean", "setting": "30 mg/kg", "result": 64, "unit": "pg/mL"}, {"measurement": "MMP9, Mean", "setting": "30 mg/kg", "result": 1945, "unit": "pg/mL"}, {"measurement": "TNFα Mean", "setting": "30 mg/kg", "result": 248, "unit": "pg/mL"}, {"measurement": "CCL2 % reduction", "setting": "100 mg/kg", "result": 107, "unit": "%"}, {"measurement": "CXCL1 % reduction", "setting": "100 mg/kg", "result": 57, "unit": "%"}, {"measurement": "CXCL2 % reduction", "setting": "100 mg/kg", "result": 64, "unit": "%"}, {"measurement": "GM-CSF % reduction", "setting": "100 mg/kg", "result": 96, "unit": "%"}, {"measurement": "IL-1β % reduction", "setting": "100 mg/kg", "result": 24, "unit": "%"}, {"measurement": "IL-6 % reduction", "setting": "100 mg/kg", "result": 117, "unit": "%"}, {"measurement": "MMP9 % reduction", "setting": "100 mg/kg", "result": 53, "unit": "%"}, {"measurement": "TNFα % reduction", "setting": "100 mg/kg", "result": 81, "unit": "%"}, {"measurement": "CCL2", "setting": "100 mg/kg", "result": "329.86 pg/mL and 256.42 pg/mL and 172.04 pg/mL and 139.64 pg/mL"}, {"measurement": "CXCL1", "setting": "100 mg/kg", "result": "7499.26 pg/mL and 6087.32 pg/mL and 5076.24 pg/mL and 5758.20 pg/mL and 5443.29 pg/mL and 4906.96 pg/mL and 4656.06 pg/mL and 5472.61 pg/mL"}, {"measurement": "CXCL2", "setting": "100 mg/kg", "result": "5382.65 pg/mL and 5518.93 pg/mL and 4695.59 pg/mL and 3380.13 pg/mL and 4061.97 pg/mL and 3178.30 pg/mL and 3700.08 pg/mL and 4913.16 pg/mL"}, {"measurement": "GM-CSF", "setting": "100 mg/kg", "result": "21.37 pg/mL and 19.68 pg/mL and 33.25 pg/mL and 14.65 pg/mL and 16.32 pg/mL and 11.32 pg/mL"}, {"measurement": "IL-1β", "setting": "100 mg/kg", "result": "10645 pg/mL and 6459 pg/mL and 7591 pg/mL and 8558 pg/mL and 9892 pg/mL and 7429 pg/mL and 7844 pg/mL and 8730 pg/mL"}, {"measurement": "IL-6", "setting": "100 mg/kg", "result": "135.95 pg/mL and 78.18 pg/mL and 127.03 pg/mL and 99.22 pg/mL and 71.56 pg/mL and 56.14 pg/mL and 105.88 pg/mL"}, {"measurement": "MMP9", "setting": "100 mg/kg", "result": "2385 pg/mL and 1353 pg/mL and 1095 pg/mL and 1490 pg/mL and 1351 pg/mL and 1232 pg/mL and 1807 pg/mL and 1236 pg/mL"}, {"measurement": "TNFα", "setting": "100 mg/kg", "result": "204.74 pg/mL and 121.62 pg/mL and 366.33 pg/mL and 248.69 pg/mL and 116.08 pg/mL and 181.07 pg/mL and 124.38 pg/mL and 233.28 pg/mL"}, {"measurement": "CCL2 Mean", "setting": "100 mg/kg", "result": 209, "unit": "pg/mL"}, {"measurement": "CXCL1, Mean", "setting": "100 mg/kg", "result": 5612, "unit": "pg/mL"}, {"measurement": "CXCL2, Mean", "setting": "100 mg/kg", "result": 4354, "unit": "pg/mL"}, {"measurement": "GM-CSF Mean", "setting": "100 mg/kg", "result": 19, "unit": "pg/mL"}, {"measurement": "IL-1β Mean", "setting": "100 mg/kg", "result": 8394, "unit": "pg/mL"}, {"measurement": "IL-6 Mean", "setting": "100 mg/kg", "result": 91, "unit": "pg/mL"}, {"measurement": "MMP9, Mean", "setting": "100 mg/kg", "result": 1494, "unit": "pg/mL"}, {"measurement": "TNFα Mean", "setting": "100 mg/kg", "result": 200, "unit": "pg/mL"}]}
